Laboratory results published in ChEMBL document CHEMBL5338793, “Discovery of Pyrimidinediamine Derivatives as Potent Methuosis Inducers for the Treatment of Triple-Negative Breast Cancer” (J Med Chem, 2023).

Columns and labels:
HCC1806 [1] = assay: Antiproliferative activity against human HCC1806 cells assessed as inhibition of cell proliferation at 1 uM incubated for 24 hrs by SRB assay relative to control; type: functional
HCC1806 [2] = assay: Antiproliferative activity against human HCC1806 cells assessed as inhibition of cell proliferation incubated for 24 hrs by SRB assay; type: functional, cell-based; conditions: HCC1806, 24 h
184B5 = assay: Cytotoxicity against human 184B5 cells assessed as reduction in cell viability at 2 uM incubated for 24 hrs by SRB assay; type: toxicity, cell-based; conditions: 184b5, 24 h
HCC1806 [3] = assay: Antiproliferative activity against human HCC1806 cells assessed as inhibition of cell proliferation at 2 uM incubated for 24 hrs by SRB assay relative to control; type: functional
HCC1806 [4] = assay: Induction of morphological changes in human HCC1806 cells assessed as rate of intracellular vacuolization at 1 uM incubated for 24 hrs by microscopic analysis relative to control; type: functional

Question: How did the inhibition at 1 µM (HCC1806 [1]) turn out when COc1cnc(N2CCNCC2)nc1Nc1ccc(NC(=O)c2cccc(F)n2)cc1C(F)(F)F was run?
Answer: 4.48%

Question: COc1cc(Nc2nc(N3C[C@@H](C)O[C@@H](C)C3)ncc2OC)ccc1NC(=O)c1cccc(Br)n1 was tested. Which inhibition at 1 µM (HCC1806 [1]) did it give?
Answer: 8.34%

Question: How did the inhibition at 1 µM (HCC1806 [1]) turn out when COc1cnc(N2CCNCC2)nc1Nc1ccc(NC(=O)c2cccc(Br)c2)cc1C(F)(F)F was run?
Answer: 8.87%

Question: What does the source list for COc1cc(Nc2nc(N3CCNCC3)ncc2Br)ccc1NC(=O)c1cccc(Br)n1?
Answer: IC50 (HCC1806 [2]): 420 nM; Activity (184B5): Non-Toxic; inhibition at 1 µM (HCC1806 [1]): 99.3%; inhibition at 2 µM (HCC1806 [3]): 38.1%; Activity (HCC1806 [4]): 65%

Question: Which inhibition at 1 µM (HCC1806 [1]) does the source give for COc1cnc(N2CCNCC2)nc1Nc1ccc(NC(=O)c2cccc(Br)n2)cc1OC(F)(F)F here?
Answer: 84.8%

Question: For COc1cc(Nc2nc(N3CCOCC3)ncc2OC)ccc1NC(=O)c1cccc(Br)n1, which inhibition at 1 µM (HCC1806 [1]) is on record?
Answer: 1.41%

Question: With COc1cnc(N2CCNCC2)nc1Nc1ccc(NC(=O)c2ccco2)cc1C(F)(F)F as the compound, how does the inhibition at 1 µM (HCC1806 [1]) read?
Answer: 1.86%

Question: COc1cnc(N2CCNCC2)nc1Nc1ccc(NC(=O)c2ccccn2)cc1C(F)(F)F was tested. Which inhibition at 1 µM (HCC1806 [1]) did it give?
Answer: 4.52%

Question: Which inhibition at 1 µM (HCC1806 [1]) does the source give for COc1cnc(N2CCNCC2)nc1Nc1ccc(NC(=O)c2cccc(Br)n2)cc1C here?
Answer: 3.6%

Question: With COc1cc(NC(=O)c2cccc(Br)n2)ccc1Nc1nc(N2CCNCC2)ncc1OC as the compound, how does the IC50 (HCC1806 [2]) read?
Answer: 970 nM

Question: And the Activity (184B5)?
Answer: Toxic

Question: What about the inhibition at 1 µM (HCC1806 [1]) of the same compound?
Answer: 97.4%

Question: What about the inhibition at 2 µM (HCC1806 [3]) of the same compound?
Answer: 10.4%

Question: And the Activity (HCC1806 [4])?
Answer: 30.17%

Question: With COc1cnc(N2CCNCC2)nc1Nc1ccc(NC(=O)c2cccs2)cc1C(F)(F)F as the compound, how does the inhibition at 1 µM (HCC1806 [1]) read?
Answer: 4.93%

Question: How did the inhibition at 1 µM (HCC1806 [1]) turn out when COc1cc(Nc2cc(N3CCNCC3)ncn2)ccc1NC(=O)c1cccc(Br)n1 was run?
Answer: 11.5%

Question: With COc1cnc(N2CCNCC2)nc1Nc1ccc(NC(=O)c2cccc(Br)n2)cn1 as the compound, how does the inhibition at 1 µM (HCC1806 [1]) read?
Answer: 9.96%

Question: How did the inhibition at 1 µM (HCC1806 [1]) turn out when COc1cnc(N2CCNCC2)nc1Nc1ccc(NC(=O)Cc2cccs2)cc1C(F)(F)F was run?
Answer: 6.92%

Question: COc1cc(Nc2nc(N3CCNCC3)ncc2Cl)ccc1NC(=O)c1cccc(Br)n1 was tested. Which IC50 (HCC1806 [2]) did it give?
Answer: 590 nM

Question: And the Activity (184B5)?
Answer: Toxic

Question: What about the inhibition at 1 µM (HCC1806 [1]) of the same compound?
Answer: 99.2%

Question: What about the inhibition at 2 µM (HCC1806 [3]) of the same compound?
Answer: 10.7%

Question: What about the Activity (HCC1806 [4]) of the same compound?
Answer: 42.33%

Question: For COc1cnc(N2CCNCC2)nc1Nc1ccc(NC(=O)c2cccc(Br)n2)cc1, which inhibition at 1 µM (HCC1806 [1]) is on record?
Answer: 17.4%

Question: With COc1cc(Nc2ccnc(N3CCNCC3)n2)ccc1NC(=O)c1cccc(Br)n1 as the compound, how does the inhibition at 1 µM (HCC1806 [1]) read?
Answer: 10.6%

Question: Which IC50 (HCC1806 [2]) does the source give for COc1cnc(N2CCNCC2)nc1Nc1cc(C)c(NC(=O)c2cccc(Br)n2)cc1C here?
Answer: 870 nM

Question: What about the Activity (184B5) of the same compound?
Answer: Toxic

Question: What about the inhibition at 1 µM (HCC1806 [1]) of the same compound?
Answer: 98.9%

Question: What about the inhibition at 2 µM (HCC1806 [3]) of the same compound?
Answer: 6.93%

Question: What about the Activity (HCC1806 [4]) of the same compound?
Answer: 42.33%

Question: Which IC50 (HCC1806 [2]) does the source give for COc1cc(Nc2nc(N3CCNCC3)ncc2OC)ccc1NC(=O)c1cccc(Br)n1 here?
Answer: 770 nM

Question: And the Activity (184B5)?
Answer: Non-Toxic

Question: What about the inhibition at 1 µM (HCC1806 [1]) of the same compound?
Answer: 99.3%

Question: What about the inhibition at 2 µM (HCC1806 [3]) of the same compound?
Answer: 59.9%

Question: What about the Activity (HCC1806 [4]) of the same compound?
Answer: 26.5%

Question: For COc1cnc(N2CCNCC2)nc1Nc1ccc(NC(=O)c2cccc(Br)n2)c(C)c1, which inhibition at 1 µM (HCC1806 [1]) is on record?
Answer: 23.3%

Question: Which inhibition at 1 µM (HCC1806 [1]) does the source give for COc1cnc(N2CCNCC2)nc1Nc1ccc(NC(=O)c2cccc(C)n2)cc1C(F)(F)F here?
Answer: 11.2%

Question: COc1cnc(N2CCNCC2)nc1Nc1ccc(NC(=O)c2cccnc2)cc1C(F)(F)F was tested. Which inhibition at 1 µM (HCC1806 [1]) did it give?
Answer: 4.54%

Question: Which inhibition at 1 µM (HCC1806 [1]) does the source give for COc1cc(Nc2nc(N3CCC(OC)CC3)ncc2OC)ccc1NC(=O)c1cccc(Br)n1 here?
Answer: 7.54%

Question: Which inhibition at 1 µM (HCC1806 [1]) does the source give for COc1cnc(N2CCNCC2)nc1Nc1ccc(NC(=O)c2ccncn2)cc1C(F)(F)F here?
Answer: 6.52%

Question: For COc1cc(Nc2cc(N3CCNCC3)nc(SC)n2)ccc1NC(=O)c1cccc(Br)n1, which inhibition at 1 µM (HCC1806 [1]) is on record?
Answer: 11.1%

Question: With COc1cnc(N2CCNCC2)nc1Nc1ccc(NC(=O)c2ncccc2Br)cc1C(F)(F)F as the compound, how does the inhibition at 1 µM (HCC1806 [1]) read?
Answer: 6.13%

Question: How did the inhibition at 1 µM (HCC1806 [1]) turn out when COc1cnc(N2CCNCC2)nc1Nc1ccc(NC(=O)c2ccc3ccccc3n2)cc1C(F)(F)F was run?
Answer: 13.3%

Question: Which inhibition at 1 µM (HCC1806 [1]) does the source give for COc1cc(Nc2ncnc(N3CCNCC3)n2)ccc1NC(=O)c1cccc(Br)n1 here?
Answer: 10.8%

Question: How did the inhibition at 1 µM (HCC1806 [1]) turn out when COc1nc(Nc2ccc(NC(=O)c3cccc(Br)n3)c(OC)c2)nc(N2CCNCC2)n1 was run?
Answer: 4.27%

Question: For COc1cnc(N2CCNCC2)nc1Nc1ccc(NC(=O)c2ccncc2)cc1C(F)(F)F, which inhibition at 1 µM (HCC1806 [1]) is on record?
Answer: 9.77%

Question: Which results are given for COc1cnc(N2CCNCC2)nc1Nc1ccc(NC(=O)c2cccc(Br)n2)cc1C(F)(F)F?
Answer: IC50 (HCC1806 [2]): 580 nM; Activity (184B5): Non-Toxic; inhibition at 1 µM (HCC1806 [1]): 99%; inhibition at 2 µM (HCC1806 [3]): 71.7%; Activity (HCC1806 [4]): 41.5%

Question: For COc1cnc(N2CCNCC2)nc1Nc1ccc(NC(=O)c2cc(Br)ccn2)cc1C(F)(F)F, which inhibition at 1 µM (HCC1806 [1]) is on record?
Answer: 12.3%

Question: With COc1cnc(N2CCNCC2)nc1Nc1ccc(NC(=O)c2cccc(Cl)n2)cc1C(F)(F)F as the compound, how does the IC50 (HCC1806 [2]) read?
Answer: 370 nM

Question: What about the Activity (184B5) of the same compound?
Answer: Non-Toxic

Question: And the inhibition at 1 µM (HCC1806 [1])?
Answer: 94.1%

Question: And the inhibition at 2 µM (HCC1806 [3])?
Answer: 52.9%

Question: And the Activity (HCC1806 [4])?
Answer: 36.83%

Question: Which IC50 (HCC1806 [2]) does the source give for COc1cnc(N2CCNCC2)nc1Nc1ccc(NC(=O)c2cccc(Br)n2)cc1C#N here?
Answer: 890 nM

Question: And the Activity (184B5)?
Answer: Toxic

Question: And the inhibition at 1 µM (HCC1806 [1])?
Answer: 99%

Question: What about the inhibition at 2 µM (HCC1806 [3]) of the same compound?
Answer: 12.6%

Question: What about the Activity (HCC1806 [4]) of the same compound?
Answer: 39.5%
